Experimental data as given in patent publication US20070259879A1, “Piperazine and piperidine biaryl derivatives” (priority 2006, published 2007).

These compounds were tested on HIV-1 pseudotyped virus (assay: HIV-1 pseudotyped virus assay (luciferase reporter gene, single cycle of infection)). Settings: Human immunodeficiency virus 1, CCR5, 72 h, read-out: Activity (antiviral activity, IC50).
Type: cell-based
Source text: In this example are illustrated experimental procedures for determining biological activity, such as antiviral activity. For determining biological activity, an HIV-1 infection assay was used to determine the antiviral potency for compounds of the present invention.
For determining biological activity, an HIV-1 pseudotyped virus assay was used to determine the respective antiviral potencies of each compound tested in the assay for comparison. The pseudotyped assay scores for a reduction in infection as indicated by decreased signal from the reporter gene encoding a luciferase enzyme (“reporter gene”). The assay employs cell lines expressing CD4 and either of the primary chemokine receptors (CCR5 or CXCR4) that HIV uses as a co-receptor (“target cells”). Pseudotyped virus was prepared by co-transfection of 293T cells with: 1) a plasmid construct carrying the HIV-1 envelope of choice, in combination with 2) a pseudotyped virus backbone construct in which (a) envelope expression has been abrogated due to a frameshift in the envelope sequence, and (b) the reporter gene replaces nef. Expression of HIV-1 envelope on 293T packaging cells results in the production of a pseudotyped virus carrying the reporter gene that is capable of a single cycle of infection.
The compounds of the present invention being tested for antiviral activity were serially diluted and dose responses determined in duplicate in two separate experiments. The compounds to be tested were added directly to the plated, target cells, followed by the addition of pseudotyped virus described above. The cells were cultured for three days prior harvest. Media and compound were removed, the cell monolayer was washed, lysed by detergent, and then frozen at −80 degrees C. for a minimum of 30 minutes. Following thawing and acclimation to room temperature, luciferase production was quatified by injecting 100 […]I of a substrate (of the enzyme encoded by the reporter gene) into each well followed by detecting the signal (light emitted from the interaction between the enzyme and substrate) after 5 seconds. In the pseudotyped assay, a 50% reduction in signal is significant, and provides the primary cutoff value for assessing antiviral activity (“IC50” is defined as the dilution resulting in a 50% reduction in enzymatic activity as interpolated from a titration curve). Representative compounds according to the present invention, and their antiviral activity, are illustrated in Table 3.

`C[C@@H]1CN(C(=O)c2ccccc2)CCN1S(=O)(=O)c1ccc(-c2csnn2)cc1` [Example 134, [(R)-3-methyl-4-(4-[1,2,3]thiadiazol-4-yl-benzenesulfonyl)-piperazin-1-yl]-phenyl-methanone] and `C[C@@H]1CN(C(=O)c2ccccc2)CCN1S(=O)(=O)c1ccc(-c2csnn2)s1` [Example 165, [(R)-3-Methyl-4-(5-[1,2,3]thiadiazol-4-yl-thiophene-2-sulfonyl)-piperazin-1-yl]-phenyl-methanone] cannot be ordered by IC50: greater than 5 µM for the first, greater than 5 µM for the second.

`CC1CN(C(=O)c2ccccc2)CCN1S(=O)(=O)c1ccc(-c2ccc3ccccc3n2)s1` (stereo not shown) [Example 135, (3-methyl-4-(5-(quinolin-2-yl)thiophen-2-ylsulfonyl)piperazin-1-yl)(phenyl)methanone] and `CC1CN(C(=O)c2ccccc2)CCN1S(=O)(=O)c1ccc(-c2ccc(-c3ccccc3)nn2)s1` (stereo not shown) [Example 156, (3-methyl-4-(5-(6-phenylpyridazin-3-yl)thiophen-2-ylsulfonyl)piperazin-1-yl)(phenyl)methanone] cannot be ordered by IC50: greater than 5 µM for the first, greater than 5 µM for the second.

`Cc1ccc(C#N)c(-c2ccc(S(=O)(=O)N3CCN(C(=O)c4ccccc4)CC3C)s2)n1` (stereo not shown) [Example 136, 2-(5-(4-benzoyl-2-methylpiperazin-1-ylsulfonyl)thiophen-2-yl)-6-methylnicotinonitrile] and `Cc1cccc(-c2ccc(S(=O)(=O)N3CCN(C(=O)c4ccccc4)CC3C)s2)n1` (stereo not shown) [Example 137, (3-methyl-4-(5-(6-methylpyridin-2-yl)thiophen-2-ylsulfonyl)piperazin-1-yl)(phenyl)methanone] cannot be ordered by IC50: greater than 5 µM for the first, greater than 5 µM for the second.

`Cc1ccnc(-c2ccc(S(=O)(=O)N3CCN(C(=O)c4ccccc4)CC3C)s2)c1` (stereo not shown) [Example 138, (3-methyl-4-(5-(4-methylpyridin-2-yl)thiophen-2-ylsulfonyl)piperazin-1-yl)(phenyl)methanone] and `C[C@@H]1CN(C(=O)c2ccccc2)CCN1S(=O)(=O)c1ccc(-c2ccccn2)s1` [Example 168, [(R)-3-Methyl-4-(5-pyridinyl-2-yl-thiophene-2-sulfonyl)-piperazin-1-yl]-phenyl-methanone] cannot be ordered by IC50: greater than 5 µM for the first, greater than 5 µM for the second.

`Cc1cccnc1-c1ccc(S(=O)(=O)N2CCN(C(=O)c3ccccc3)CC2C)s1` (stereo not shown) [Example 139, (3-methyl-4-(5-(3-methylpyridin-2-yl)thiophen-2-ylsulfonyl)piperazin-1-yl)(phenyl)methanone] and `CC1CN(C(=O)c2ccccc2)CCN1S(=O)(=O)c1ccc(-c2ncccc2C(F)(F)F)s1` (stereo not shown) [Example 157, (3-methyl-4-(5-(3-(trifluoro-methyl)pyridin-2-yl)thiophen-2-ylsulfonyl)piperazin-1-yl)(phenyl)methanone] cannot be ordered by IC50: greater than 5 µM for the first, greater than 5 µM for the second.

Compared with `CC1CN(C(=O)c2ccccc2)CCN1S(=O)(=O)c1ccc(-c2ncccn2)s1` (stereo not shown) [Example 141, (3-methyl-4-(5-(pyrimidin-2-yl)thiophen-2-ylsulfonyl)piperazin-1-yl)(phenyl)methanone], `CC1CN(C(=O)c2ccccc2)CCN1S(=O)(=O)c1ccc(-c2ccncn2)s1` (stereo not shown) [Example 148, (3-methyl-4-(5-(pyrimidin-4-yl)thiophen-2-ylsulfonyl)piperazin-1-yl)(phenyl)methanone] is higher in IC50: less than 5 µM for the first, greater than 5 µM for the second.

Going from `CC1CN(C(=O)c2ccccc2)CCN1S(=O)(=O)c1ccc(-c2cccs2)s1` (stereo not shown) [Example 142, (4-(2,2′-bithiophen-5-ylsulfonyl)-3-methylpiperazin-1-yl)(phenyl)methanone] to `CC1CN(C(=O)c2ccccc2)CCN1S(=O)(=O)c1ccc(-c2ccccc2)s1` (stereo not shown) [Example 145, (3-methyl-4-(5-phenylthiophen-2-ylsulfonyl)piperazin-1-yl)(phenyl)methanone], the IC50 rises from less than 5 µM to greater than 5 µM.

Compared with `CC1CN(C(=O)c2ccccc2)CCN1S(=O)(=O)c1ccc(-c2ccc(-c3ccon3)s2)s1` (stereo not shown) [Example 143, (4-(5′-(isoxazol-3-yl)-2,2′-bithiophen-5-ylsulfonyl)-3-methylpiperazin-1-yl)(phenyl)methanone], `CC1CN(C(=O)c2ccccc2)CCN1S(=O)(=O)c1ccc(-c2ccc(-c3ccno3)s2)s1` (stereo not shown) [Example 144, (4-(5′-(isoxazol-5-yl)-2,2′-bithiophen-5-ylsulfonyl)-3-methylpiperazin-1-yl)(phenyl)methanone] is lower in IC50: greater than 5 µM for the first, less than 5 µM for the second. The second is the more potent here.

Going from `Cc1ccc(-c2ccc(S(=O)(=O)N3CCN(C(=O)c4ccccc4)CC3C)s2)nn1` (stereo not shown) [Example 146, (3-methyl-4-(5-(6-methylpyridazin-3-yl)thiophen-2-ylsulfonyl)piperazin-1-yl)(phenyl)methanone] to `CC1CN(C(=O)c2ccccc2)CCN1S(=O)(=O)c1ccc(-c2ccc(C#N)cn2)s1` (stereo not shown) [Example 147], the IC50 falls from greater than 5 µM to less than 5 µM. The second is the more potent here.

`CC1CN(C(=O)c2ccccc2)CCN1S(=O)(=O)c1ccc(-c2cccnc2)s1` (stereo not shown) [Example 150, (3-methyl-4-(5-(pyridin-3-yl)thiophen-2-ylsulfonyl)piperazin-1-yl)(phenyl)methanone] and `CC1CN(C(=O)c2ccccc2)CCN1S(=O)(=O)c1ccc(-c2ccncc2)s1` (stereo not shown) [Example 153, (3-methyl-4-(5-(pyridin-4-yl)thiophen-2-ylsulfonyl)piperazin-1-yl)(phenyl)methanone] cannot be ordered by IC50: greater than 5 µM for the first, greater than 5 µM for the second.

`CC1CN(C(=O)c2ccccc2)CCN1S(=O)(=O)c1ccc(-c2ncnc3ccsc23)s1` (stereo not shown) [Example 151, (3-methyl-4-(5-(thieno[3,2-d]pyrimidin-4-yl)thiophen-2-ylsulfonyl)piperazin-1-yl)(phenyl)methanone] and `CC1CN(C(=O)c2ccccc2)CCN1S(=O)(=O)c1ccc(-c2nncc3ccccc23)s1` (stereo not shown) [Example 154, (3-methyl-4-(5-(phthalazin-1-yl)thiophen-2-ylsulfonyl)piperazin-1-yl)(phenyl)methanone] cannot be ordered by IC50: greater than 5 µM for the first, greater than 5 µM for the second.

`CC1CN(C(=O)c2ccccc2)CCN1S(=O)(=O)c1ccc(-c2cc(-n3ccnc3)ncn2)s1` (stereo not shown) [Example 152, (4-(5-(6-(1H-imidazol-1-yl)pyrimidin-4-yl)thiophen-2-ylsulfonyl)-3-methylpiperazin-1-yl)(phenyl)methanone] and `CC(=O)c1cccc(-c2ccc(S(=O)(=O)N3CCN(C(=O)c4ccccc4)CC3C)s2)n1` (stereo not shown) [Example 155, 1-(6-(5-(4-benzoyl-2-methylpiperazin-1-ylsulfonyl)thiophen-2-yl)pyridin-2-yl)ethanone] cannot be ordered by IC50: greater than 5 µM for the first, greater than 5 µM for the second.

`Cc1nc2cc(-c3ccc(S(=O)(=O)N4CCN(C(=O)c5ccccc5)CC4C)s3)ccc2s1` (stereo not shown) [Example 158, (3-methyl-4-(5-(2-methylbenzo[d]thiazol-5-yl)thiophen-2-ylsulfonyl)piperazin-1-yl)(phenyl)methanone] and `C[C@@H]1CN(C(=O)c2ccccc2)CCN1S(=O)(=O)c1ccc(-c2cc(C(F)(F)F)on2)s1` [Example 167, [(R)-3-Methyl-4-(5-[(5-trifluoromethyl)-isoxazol-3-yl]-thiophene-2-sulfonyl)-piperazin-1-yl]-phenyl-methanone] cannot be ordered by IC50: greater than 5 µM for the first, greater than 5 µM for the second.

Going from `CC1CN(C(=O)c2ccccc2)CCN1S(=O)(=O)c1ccc(-c2cnco2)cc1` (stereo not shown) [Example 166, [3-Methyl-4-(4-oxazol-5-yl-benzenesulfonyl)-piperazin-1-yl]-phenyl methanone] to `CC1CN(C(=O)c2ccccc2)CCN1C(=O)C(=O)c1ccc(-c2ccn[nH]2)cc1` (stereo not shown) [Example 169, 1-(4-Benzoyl-2-methyl-piperazin-1-yl)-2-[4-(2H-pyrazol-3-yl)-phenyl]-ethane-1,2-dione], the IC50 falls from greater than 5 µM to less than 5 µM. The second is the more potent here.
